Key:
Assay in all cases: In vitro MMP inhibition, Ki determination (fluorogenic substrate II)
Format in all cases: biochemical
Human recombinant MMP-9 = molecular target: T1, Human recombinant MMP-9 (Homo sapiens, UniProt P14780)
T1 construct: made in house; host or cells: MMP-9-transfected HT1080 cells (spent media)
Method in brief: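 MMP-9 proenzyme purified from transfected HT1080 cell media, activated with APMA, trypsin or recombinant MMP-3; hydroxamates diluted in pH 7.5 Tris/NaCl/CaCl2 buffer. Cleavage of 4 μM MCA/Dpa substrate II followed by fluorescence (ex 330/em 420 nm), 1 h at room temperature. Ki from Morrison-equation fit, substrate at/below Km, uncorrected.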

Human recombinant MMP-1 = molecular target: T2, Human recombinant MMP-1 (Homo sapiens, UniProt P03956)
T2 construct: made in house; host or cells: MMP-1-transfected HT-1080 cells (spent media)
T2 sequence (P03956 100-469): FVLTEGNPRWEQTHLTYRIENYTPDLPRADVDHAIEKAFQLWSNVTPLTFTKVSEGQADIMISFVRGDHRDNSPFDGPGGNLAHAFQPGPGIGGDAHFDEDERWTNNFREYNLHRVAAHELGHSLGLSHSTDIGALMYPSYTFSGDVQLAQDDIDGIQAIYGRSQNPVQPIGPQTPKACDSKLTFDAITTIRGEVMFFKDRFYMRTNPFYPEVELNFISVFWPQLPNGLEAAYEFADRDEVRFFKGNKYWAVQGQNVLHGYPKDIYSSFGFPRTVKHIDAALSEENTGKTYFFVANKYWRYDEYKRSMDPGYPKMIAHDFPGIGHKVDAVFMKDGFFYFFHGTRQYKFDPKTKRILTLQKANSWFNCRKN
Method in brief: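 Activated human recombinant MMP-1 (APMA- or trypsin-activated; proenzyme from transfected HT-1080 cells) incubated 1 hr at room temperature with 4 μM MCA/Dpa fluorogenic substrate II at or below Km in Tris buffer pH 7.5 with CaCl2. Fluorescence ex 330/em 420 nm; Ki from Morrison-equation non-linear regression, uncorrected for substrate.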

Human recombinant MMP-14 = molecular target: T3, Human recombinant MMP-14 (Homo sapiens, UniProt P50281)
T3 construct: The catalytic domain enzyme was expressed in E. coli inclusion bodies, solubilized in urea; made in house
Method in brief: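 Refolded E. coli-expressed MMP-14 catalytic domain, APMA- or trypsin-activated, incubated 1 h at room temperature with 4 μM fluorogenic substrate II in pH 7.5 Tris/NaCl/CaCl2 buffer; fluorescence read at 330/420 nm. Ki from Morrison-equation non-linear regression, substrate at or below Km, uncorrected for substrate.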

[1] = substrate (II) 4 μM, 1 hr room temperature, apparent Ki, values in parenthesis

T1 sequence (P14780 107-707 limits assumed): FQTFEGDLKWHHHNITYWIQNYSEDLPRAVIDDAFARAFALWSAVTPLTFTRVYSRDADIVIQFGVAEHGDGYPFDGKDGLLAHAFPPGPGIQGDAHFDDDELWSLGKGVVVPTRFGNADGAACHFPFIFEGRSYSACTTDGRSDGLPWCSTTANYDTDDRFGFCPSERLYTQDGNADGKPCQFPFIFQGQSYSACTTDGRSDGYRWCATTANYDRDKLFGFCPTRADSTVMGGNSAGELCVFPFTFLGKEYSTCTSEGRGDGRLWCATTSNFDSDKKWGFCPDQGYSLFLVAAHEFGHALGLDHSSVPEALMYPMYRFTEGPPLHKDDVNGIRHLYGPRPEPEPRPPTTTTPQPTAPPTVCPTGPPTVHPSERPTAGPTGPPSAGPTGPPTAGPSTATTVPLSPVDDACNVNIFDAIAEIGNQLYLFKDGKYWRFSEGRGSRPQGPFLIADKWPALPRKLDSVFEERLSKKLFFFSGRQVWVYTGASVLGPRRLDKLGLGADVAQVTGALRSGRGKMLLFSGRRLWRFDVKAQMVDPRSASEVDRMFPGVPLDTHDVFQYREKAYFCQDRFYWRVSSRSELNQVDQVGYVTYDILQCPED

Row | Ki (Human recombinant MMP-9; value in parentheses) | Ki (Human recombinant MMP-1; value in parentheses) | Ki (Human recombinant MMP-14; value in parentheses) | Ki (Human recombinant MMP-9; value in parenthesis) | Ki (Human recombinant MMP-1; value in parenthesis) | Ki (Human recombinant MMP-14; value in parenthesis) | Compound | further results
1 | 0.238 µM | > 10 µM | 5.7 µM |  |  |  | CCC(=O)c1cccc(CCCOc2ccc(S(=O)(=O)C3(C(=O)NO)CCOCC3)cc2)c1 [Example 528] | 
2 |  |  |  | 1.5 µM | > 10 µM | > 10 µM | O=C(NO)C1(S(=O)(=O)c2ccc(OCCCc3cccc(-c4ccc(F)c(F)c4)c3)cc2)CCOCC1 [Example 170] | 
3 |  |  |  | 1.12 µM | > 10 µM | > 10 µM | O=C(NO)C1(S(=O)(=O)c2ccc(OCCCc3nc(-c4ccc(OC(F)(F)F)cc4)no3)cc2)CCN(Cc2ccccc2)CC1 [Example 93] | 
4 |  |  |  | 8.85 µM | > 10 µM | > 10 µM | O=C(NO)C1(S(=O)(=O)c2ccc(OCCc3cccc(-c4ccc(OC(F)(F)F)cc4)c3)cc2)CCOCC1 [Example 112] | 
5 | 0.269 µM | > 10 µM | > 10 µM |  |  |  | O=C(NCCSc1ccc(S(=O)(=O)C2(C(=O)NO)CCN(C3CC3)CC2)cc1)c1nc2ccccc2s1 [Example 541] | 
6 |  |  |  | 3.95 µM | > 10 µM | > 10 µM | COc1ccc(-c2cccc(CCOc3ccc(S(=O)(=O)C4(C(=O)NO)CCOCC4)cc3)c2)cc1C [Example 119] | 
7 | 0.255 µM | > 10 µM | 9.27 µM |  |  |  | COCCN1CCC(C(=O)NO)(S(=O)(=O)c2ccc(OCCCc3cccc(-c4ccc(F)cc4F)c3)cc2)CC1 [Example 513] | 
8 |  |  |  | 4.87 µM | > 10 µM | > 10 µM | O=C(NO)C1(S(=O)(=O)c2ccc(OCCc3cccc(-c4ccccc4Cl)c3)cc2)CCOCC1 [Example 114] | 
9 |  |  |  | 0.0595 µM | > 10 µM | > 10 µM | COCCN1CCC(C(=O)NO)(S(=O)(=O)c2ccc(OCCCc3nc(-c4cccc5ccccc45)no3)cc2)CC1 [Example 199] | 
10 | 0.922 µM | > 10 µM | > 10 µM |  |  |  | O=C(NCCSc1ccc(S(=O)(=O)C2(C(=O)NO)CCN(C3CC3)CC2)cc1)c1cc2ccccc2o1 [Example 542] | 
11 |  |  |  | 6.6 µM | > 10 µM | > 10 µM | O=C(NO)C1(S(=O)(=O)c2ccc(OCCCc3cccc(-c4ccc(Cl)cc4Cl)c3)cc2)CCOCC1 [Example 171] | 
12 |  |  |  | > 10 µM | > 10 µM | > 10 µM | O=C(NO)C1(S(=O)(=O)c2ccc(OCCc3cccc(-c4ccc(Cl)cc4Cl)c3)cc2)CCOCC1 [Example 124] | 
13 | 1.32 µM | > 10 µM | > 10 µM |  |  |  | O=C(NO)C1(S(=O)(=O)c2ccc(OCCc3ccc(-c4cccc(O)c4)cc3)cc2)CCOCC1 [Example 532] | 
14 | 0.0385 µM | > 10 µM | > 10 µM |  |  |  | COCCN1CCC(C(=O)NO)(S(=O)(=O)c2ccc(OCCCc3cccc(-c4cccc(F)c4)c3)cc2)CC1 [Example 511] | 
15 |  |  |  | 0.11 µM | > 10 µM | > 10 µM | NC(=O)c1cccc(-c2noc(CCCOc3ccc(S(=O)(=O)C4(C(=O)NO)CCN(C5CC5)CC4)cc3)n2)c1 [Example 129] | 
16 | 0.774 µM | > 10 µM | > 10 µM |  |  |  | O=C(NO)C1(S(=O)(=O)c2ccc(OCCc3ccc(-c4ccc(O)cc4)cc3)cc2)CCOCC1 [Example 531] | 
17 |  |  |  | > 10 µM | > 10 µM | > 10 µM | Cc1cc(-c2cccc(CCOc3ccc(S(=O)(=O)C4(C(=O)NO)CCOCC4)cc3)c2)ccc1Cl [Example 118] | 
18 | 0.22 µM | > 10 µM | > 10 µM |  |  |  | O=C(NO)C1(S(=O)(=O)c2ccc(OCCCc3cccc(-c4cccc(O)c4)c3)cc2)CCOCC1 [Example 530] | 
19 |  |  |  |  |  |  | COCCN1CCC(C(=O)NO)(S(=O)(=O)c2ccc(OCCc3cccc(-c4ccccc4)c3)cc2)CC1 [Example 45] | Ki (Human recombinant MMP-9; [1]): 0.499 µM; Ki (Human recombinant MMP-1; [1]): > 10 µM; Ki (Human recombinant MMP-14; [1]): > 10 µM
20 | 0.923 µM | > 10 µM | > 10 µM |  |  |  | COCCN1CCC(C(=O)NO)(S(=O)(=O)c2ccc(OCCc3cccc(-c4cccc(F)c4)c3)cc2)CC1 [Example 545] | 
21 |  |  |  | 0.457 µM | > 10 µM | 9.51 µM | COCCN1CCC(C(=O)NO)(S(=O)(=O)c2ccc(OCCCc3nc(-c4ccc(Br)cc4C)no3)cc2)CC1 [Example 135] | 
22 | 0.0482 µM | > 10 µM | 2.06 µM |  |  |  | CCCCc1ccc(COc2ccc(S(=O)(=O)C3(C(=O)NO)CCOCC3)cc2)cn1 [Example 551] | 
23 |  |  |  | 2.51 µM | > 10 µM | > 10 µM | CCCCc1ccc(-c2noc(CCCOc3ccc(S(=O)(=O)C4(C(=O)NO)CCOCC4)cc3)n2)c(C)c1 [Example 183] | 
24 | 0.117 µM | > 10 µM | 1.7 µM |  |  |  | COCCN1CCC(C(=O)NO)(S(=O)(=O)c2ccc(OCCc3cccc(-c4ccncc4)c3)cc2)CC1 [Example 538] | 
25 | 0.05 µM | > 10 µM | 0.689 µM |  |  |  | O=C(NO)C1(S(=O)(=O)c2ccc(OCCCOCc3ccncc3)cc2)CCOCC1 [Example 555] | 
26 | 0.705 µM | > 10 µM | > 10 µM |  |  |  | O=C(NCCSc1ccc(S(=O)(=O)C2(C(=O)NO)CCOCC2)cc1)c1nc2ccccc2s1 [Example 598] | 
27 | 0.0576 µM | > 10 µM | 0.845 µM |  |  |  | O=C(NO)C1(S(=O)(=O)c2ccc(OCCCOc3cncnc3)cc2)CCOCC1 [Example 559] | 
28 | 0.324 µM | > 10 µM | 6.81 µM |  |  |  | CCCc1ccc(CCCOc2ccc(S(=O)(=O)C3(C(=O)NO)CCOCC3)cc2)cn1 [Example 534] | 
29 | 1.86 µM | > 10 µM | > 10 µM |  |  |  | COCCN1CCC(C(=O)NO)(S(=O)(=O)c2ccc(OCCc3cccc(-c4ccc(Cl)cc4)c3)cc2)CC1 [Example 547] | 
30 |  |  |  | 6.5 µM | > 10 µM | > 10 µM | Cc1cc(-c2cccc(CCCOc3ccc(S(=O)(=O)C4(C(=O)NO)CCOCC4)cc3)c2)ccc1F [Example 168] | 
